These results are taken from ChEMBL document CHEMBL4184084, “Discovery of Mcl-1 inhibitors based on a thiazolidine-2,4-dione scaffold” (Bioorg Med Chem Lett, 2018).

For assay [1], the target named is Induced myeloid leukemia cell differentiation protein Mcl-1 (Homo sapiens, UniProt Q07820). Kind of assay: Inhibition of FITC-labeled Bak-BH3 peptide binding to MCL1 (172 to 371 residues) (unknown origin) by fluorescence polarization competition assay. In general terms: Fluorescence polarisation rises when a labelled molecule tumbles more slowly, as on binding a larger partner.
Induced myeloid leukemia cell differentiation protein Mcl-1, sequence (Q07820 whole entry, the tested form may be a part): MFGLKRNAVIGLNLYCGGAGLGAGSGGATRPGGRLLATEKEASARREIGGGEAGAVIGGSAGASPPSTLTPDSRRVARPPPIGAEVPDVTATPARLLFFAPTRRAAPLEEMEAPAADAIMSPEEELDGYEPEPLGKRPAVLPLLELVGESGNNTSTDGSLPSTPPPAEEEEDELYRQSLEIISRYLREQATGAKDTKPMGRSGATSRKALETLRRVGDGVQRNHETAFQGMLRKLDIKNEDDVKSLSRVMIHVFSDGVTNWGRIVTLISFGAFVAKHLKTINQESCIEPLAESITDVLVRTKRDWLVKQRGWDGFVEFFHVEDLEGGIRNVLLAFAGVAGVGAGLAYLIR

In a further assay the target is Bcl-2-like protein 1 (Homo sapiens, UniProt Q07817). Nature of the assay: Inhibition of FITC-labeled Bak-BH3 peptide binding to Bcl-XL (2 to 212 residues) (unknown origin) by fluorescence polarization assay.
Bcl-2-like protein 1, sequence (Q07817 whole entry, the tested form may be a part): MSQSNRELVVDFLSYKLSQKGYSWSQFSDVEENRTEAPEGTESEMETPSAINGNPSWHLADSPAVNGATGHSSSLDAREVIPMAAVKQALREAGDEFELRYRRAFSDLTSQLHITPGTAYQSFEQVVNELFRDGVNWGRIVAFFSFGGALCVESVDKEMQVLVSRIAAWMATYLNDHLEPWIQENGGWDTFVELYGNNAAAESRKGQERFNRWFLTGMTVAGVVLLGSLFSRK

In general, Ki refers to a dissociation constant, usually derived from enzyme kinetics or from competition with a known ligand. High values mean weaker binding, low ones tighter binding. In assay [1], `Cc1cc(Oc2ccc(/C=C3\SC(=O)NC3=O)cc2)cc(C)c1Cl` had a Ki above 100000 nM.

Regarding `O=C(O)[C@H](Cc1ccccc1)N1C(=O)S/C(=C\c2cccc(Br)c2)C1=O`, the Ki in assay [1] is 290 nM.

In turn, `CC(C)C[C@@H](C(=O)O)N1C(=O)S/C(=C\c2ccc(O)cc2)C1=O` yielded a Ki in assay [1] above 100000 nM.

In turn, `Cc1cc(Oc2ccc(/C=C3\SC(=O)N([C@@H](CC(C)C)C(N)=O)C3=O)cc2)cc(C)c1Cl` gave a Ki in assay [1] above 100000 nM.

Compound `Cc1cc(Oc2ccc(/C=C3\SC(=O)N([C@@H](C)C(=O)O)C3=O)cc2)cc(C)c1Cl` registered a Ki in assay [1] of 1940 nM.

In assay [1], `CC(C)C[C@@H](C(=O)O)N1C(=O)S/C(=C\c2cccc(Br)c2)C1=O` came in with a Ki of 2130 nM.

In the case of `CC(C)C[C@@H](C(=O)O)N1C(=O)S/C(=C\c2ccc(C(C)(C)C)cc2)C1=O`, the Ki in assay [1] is 2220 nM.

As for `Cc1cc(Oc2ccc(/C=C3\SC(=O)N([C@H](CC(C)C)C(=O)O)C3=O)cc2)cc(C)c1Cl`, the inhibition constant Ki in assay [1] came out at 1000 nM.

Take `CC(C)C[C@@H](C(=O)O)N1C(=O)S/C(=C\c2ccccc2)C1=O`: in assay [1], the Ki is above 100000 nM.

In turn, `Cc1cc(Oc2ccc(CC3SC(=O)N(CC(=O)O)C3=O)cc2)cc(C)c1Cl` (configuration not stated) gave a Ki in assay [1] of 10200 nM.

`Cc1cc(Oc2ccc(/C=C3\SC(=O)N([C@@H](CC(C)C)C(=O)O)C3=O)cc2)cc(C)c1Cl` came in with a Ki in assay [1] of 419 nM.

As to `CC(C)C[C@@H](C(=O)O)N1C(=O)S/C(=C\c2ccc(Br)cc2)C1=O`, in assay [1], the inhibition constant Ki is 8780 nM.

Regarding `Cc1cc(Oc2ccc(/C=C3\SC(=O)N([C@H](C)C(=O)O)C3=O)cc2)cc(C)c1Cl`, the affinity in assay [1], expressed as Ki, was 2780 nM.

For the compound `Cc1cc(Oc2ccc(/C=C3\SC(=O)N([C@@H](CC(C)C)C(=O)O)C3=O)cc2Br)cc(C)c1Cl`, the affinity in assay [1], expressed as Ki, was 791 nM.

`Cc1cc(Oc2ccc(/C=C3\SC(=O)N([C@H](C(=O)O)C(C)C)C3=O)cc2)cc(C)c1Cl` had a Ki in assay [1] of 1190 nM.

In the case of `Cc1cc(Oc2ccc(/C=C3\SC(=O)N([C@H](Cc4ccccc4)C(=O)O)C3=O)cc2)cc(C)c1Cl`, in assay [1], the affinity, expressed as Ki, was 878 nM.

`CC(C)C[C@@H](C(=O)O)N1C(=O)S/C(=C\c2ccc(Oc3ccccc3)cc2)C1=O` displayed a Ki in assay [1] of 12700 nM.

Take `Cc1cc(Oc2ccc(/C=C3\SC(=O)N([C@@H](Cc4ccccc4)C(=O)O)C3=O)cc2)cc(C)c1Cl`: the Ki in assay [1] came out at 155 nM; at Bcl-2-like protein 1, 90 nM.

Take `Cc1cc(Oc2ccc(/C=C3\SC(=O)N(CC(=O)O)C3=O)cc2)cc(C)c1Cl`: in assay [1], the Ki came out at 2340 nM.

In the case of `COC(=O)[C@H](CC(C)C)N1C(=O)S/C(=C\c2ccc(Oc3cc(C)c(Cl)c(C)c3)cc2)C1=O`, in assay [1], the Ki was above 100000 nM.

For `CC(C)(C)c1ccc(/C=C2\SC(=O)N([C@@H](Cc3ccccc3)C(=O)O)C2=O)cc1`, affinity in assay [1] was put at a Ki of 845 nM.
